Paper PMC6133161, “Thiazoles with cyclopropyl fragment as antifungal, anticonvulsant, and anti-Toxoplasma gondii agents: synthesis, toxicity evaluation, and molecular docking study” (Medicinal Chemistry Research, 2018)
In brackets after ≈: the same amount, converted by molar mass.

Key:
Assay in all cases: Broth microdilution MIC/MFC, clinical isolate
Type in all cases: cell-based
C. krusei = conditions: Pichia kudriavzevii, C. krusei clinical strain; for MFC: read-out: MFC; for MIC: read-out: MIC
Text: (§1) In the study of antifungal activity of the compounds 3a–3j, 15 clinical strains of different species of yeasts from Candida species, namely C. albicans, C. dubliniensis C. famata, C. inconspicua, C. krusei, C. tropicalis, C. glabrata, C. lambica, C. kefyr, C. lusitaniae, C. parapsilosis, C. guilliermondii, C. lusitaniae, C. pulcherrima and C. sake were also used. These fungi were isolated by the author (from Department of Pharmaceutical Microbiology of Medical University in Lublin, Poland) from different clinical materials, e.g., from upper respiratory tract of hospitalized patients including cancer patients (i.e., with non-small cell lung cancer or hematological malignancies). Some patients were after pre-operative or post-operative chemotherapy (treated with etoposide or cis-platin given in doses according to the standard procedures), patients with chronic hepatitis C (undergoing peginterferon and ribavirin therapy or without antiviral therapy), patients with diabetes, elderly people, aged of 65 years old or older, staying in close population, such as a care centre and people staying outside the home care. The Ethical Committee of the Medical University of Lublin approved the study protocol (No. KE-0254/75/2011). The isolates were identified by standard diagnostic methods—biochemical microtest, e.g., API 20C AUX, ID 32C, API Candida (bioMérieux) on the basis of assimilation of various substrates. All the used microbial cultures were first subcultured on nutrient agar or Sabouraud agar for bacteria and fungi, respectively. The RPMI 1640 with MOPS (for fungi) were inoculated with the suspensions of fungal species. Microbial suspensions were prepared in sterile saline (0.85% NaCl) with an optical density of 0.5 McFarland standard scale (Wiegand et al. [2008]). Samples containing examined compounds were dissolved in dimethyl sulfoxide (DMSO). Furthermore, fungal suspensions were put onto Petri dishes with solid media containing 2 mg/ml of the tested compounds followed incubation under appropriate conditions. The inhibition of microbial growth was judged by comparison with a control culture prepared without any sample tested. Nystatin (Sigma) was used as a reference antifungal compound. Subsequently MIC minimal inhibitory concentration (MIC) of the compounds was examined by the microdilution broth method, using their two-fold dilutions in RPMI 1640 broth with MOPS prepared in 96-well polystyrene plates. Final concentrations of the compounds ranged from 1000 to 0.0038 µg/ml. Microbial suspensions were prepared in sterile saline with an optical density of 0.5 McFarland standard. Next fungal suspension was added per each well containing broth and various concentrations of the examined compounds. After incubation, the MIC was assessed spectrophotometric as the lowest concentration of the samples showing complete fungal growth inhibition. Appropriate DMSO, growth and sterile controls were carried out. The medium with no tested substances was used as a control (Wiegand et al. [2008]). The minimal fungicidal concentration (MFC) are defined as the lowest concentration of the compounds that is required to kill a particular fungal species. MFC was determined by removing the culture using for MIC determinations from each well and spotting onto appropriate agar medium. The plates were incubated. The lowest compounds concentration with no visible growth observed was assessed as a fungicidal concentration. All the experiments were repeated three times and representative data are presented.
(§2) The MFC/MIC ratios were calculated in order to determine fungicidal (MFC/MIC ≤ 4) or fungistatic (MFC/MIC > 4) effect of the tested compounds (O’Donnell et al. [2010]).

C. famata = conditions: Debaryomyces hansenii, C. famata clinical strain; for MFC: read-out: MFC; for MIC: read-out: MIC
Text: as §1, §2

C. sake = conditions: Fermentozyma sake, C. sake clinical strain; for MFC: read-out: MFC; for MIC: read-out: MIC
Text: as §1, §2

C. parapsilosis = conditions: Lodderomyces parapsilosis, C. parapsilosis clinical strain; for MFC: read-out: MFC; for MIC: read-out: MIC
Text: as §1, §2

C. albicans = conditions: Candida albicans, C. albicans clinical strain; for MFC: read-out: MFC; for MIC: read-out: MIC
Text: as §1, §2

C. dubliniensis = conditions: Candida dubliniensis, C. dubliniensis clinical strain; for MFC: read-out: MFC; for MIC: read-out: MIC
Text: as §1, §2

C. guilliermondii = conditions: Meyerozyma guilliermondii, C. guilliermondii clinical strain; for MFC: read-out: MFC; for MIC: read-out: MIC
Text: as §1, §2

C. tropicalis = conditions: Candida tropicalis, C. tropicalis clinical strain; for MFC: read-out: MFC; for MIC: read-out: MIC
Text: as §1, §2

C. lusitaniae = conditions: Clavispora lusitaniae, C. lusitaniae clinical strain; for MFC: read-out: MFC; for MIC: read-out: MIC
Text: as §1, §2

C. inconspicua = conditions: Pichia inconspicua, C. inconspicua clinical strain; for MFC: read-out: MFC; for MIC: read-out: MIC
Text: as §1, §2

C. glabrata = conditions: Nakaseomyces glabratus, C. glabrata clinical strain
Text: as §1, §2

C. kefyr = conditions: Kluyveromyces marxianus, C. kefyr clinical strain
Text: as §1, §2

SMILES	MFC (C. krusei) [µg/mL]	MIC (C. krusei) [µg/mL]	MFC (C. famata) [µg/mL]	MIC (C. famata) [µg/mL]	MFC (C. sake) [µg/mL]	MIC (C. sake) [µg/mL]	MFC (C. parapsilosis) [µg/mL]	MIC (C. parapsilosis) [µg/mL]	MFC (C. albicans) [µg/mL]	MIC (C. albicans) [µg/mL]	MFC (C. dubliniensis) [µg/mL]	MIC (C. dubliniensis) [µg/mL]	MFC (C. guilliermondii) [µg/mL]	MIC (C. guilliermondii) [µg/mL]	MFC (C. tropicalis) [µg/mL]	MIC (C. tropicalis) [µg/mL]	MFC (C. lusitaniae) [µg/mL]	MIC (C. lusitaniae) [µg/mL]	MFC (C. inconspicua) [µg/mL]	MIC (C. inconspicua) [µg/mL]	also measured
Fc1ccc(-c2csc(N/N=C/C3CC3)n2)cc1 [Compound 3a, (E)-2-(2-(Cyclopropylmethylene)hydrazinyl)-4-(4-fluorophenyl)thiazole]	1.95 (≈ 7.46 µM)	0.98 (≈ 3.75 µM)	62.5 (≈ 239 µM)	7.81 (≈ 29.9 µM)	15.6 (≈ 59.8 µM)	3.91 (≈ 15 µM)	7.81 (≈ 29.9 µM)	3.91 (≈ 15 µM)	3.91 (≈ 15 µM)	0.98 (≈ 3.75 µM)	3.91 (≈ 15 µM)	1.95 (≈ 7.46 µM)	31.2 (≈ 120 µM)	1.95 (≈ 7.46 µM)	1.95 (≈ 7.46 µM)	0.98 (≈ 3.75 µM)	3.91 (≈ 15 µM)	0.98 (≈ 3.75 µM)	3.91 (≈ 15 µM)	1.95 (≈ 7.46 µM)	
Brc1ccc(-c2csc(N/N=C/C3CC3)n2)cc1 [Compound 3b, (E)-4-(4-Bromophenyl)-2-(2-(cyclopropylmethylene)hydrazinyl)thiazole]	0.48 (≈ 1.49 µM)	0.24 (≈ 0.745 µM)	0.98 (≈ 3.04 µM)	0.12 (≈ 0.372 µM)	0.24 (≈ 0.745 µM)	0.06 (≈ 0.186 µM)	0.12 (≈ 0.372 µM)	0.12 (≈ 0.372 µM)	1.95 (≈ 6.05 µM)	0.12 (≈ 0.372 µM)	0.06 (≈ 0.186 µM)	0.06 (≈ 0.186 µM)	0.48 (≈ 1.49 µM)	0.12 (≈ 0.372 µM)	0.12 (≈ 0.372 µM)	0.06 (≈ 0.186 µM)	1.95 (≈ 6.05 µM)	0.98 (≈ 3.04 µM)	3.91 (≈ 12.1 µM)	0.24 (≈ 0.745 µM)	MFC (C. glabrata; read-out: MFC): > 1000 µg/mL; MIC (C. glabrata; read-out: MIC): 62.5 µg/mL (≈ 194 µM); MFC (C. kefyr; read-out: MFC): > 1000 µg/mL; MIC (C. kefyr; read-out: MIC): 15.6 µg/mL (≈ 48.5 µM)
